Assay [1] concerns Male ddY mice. Description: Anti-cerebroischemic effect (brain protection after ischemia by decapitation): gasping time. It counts as in vivo, mouse (male ddY). The following applies: intraperitoneal, 30 min before decapitation. The procedure: 1. Anti-cerebroischemic effect (i.e., brain protection after ischemia by decapitation)
Male ddY mice weighing 22-30 g were used in groups each consisting of 6 animals. Test compounds were administered intraperitoneally to the mice which were decapitated 30 minutes after the administration. The gasping time, or the duration of time between the onset of panting after decapitation and its cessation, was measured, and this was compared with the gasping time for a control group which were given only a liquid vehicle.

For assay [2], the system named is Male ddY mice. Briefly: Anti-hypoxia effect (brain protection in low-oxygen state after evacuation): survival time. In kind it is in vivo, mouse (male ddY). The note with it: intraperitoneal, 180 mmHg. The procedure:
2. Anti-hypoxia effect (i.e., […] protection in low-oxygen state after evacuation)
Male ddY m8mice weighing 22-30 g were used in groups each consisting of 7-10 animals. The mice were placed in a desiccator (capacity: ca. 1,000 ml) which was evacuated with a vacuum pump to an internal pressure of 180 mmHg after intraperitoneal administration of test compounds. The survival time, or the duration of time between the start of evacuation and the cessation of breathing, was measured, and this was compared with the value for a vehicle group. Any survival time longer than a period of 15 minutes after application of a hypoxia load was counted as 15 minutes.

Another assay relates to vertebral artery. Briefly: Effect on blood flow in the vertebral artery, blood pressure and heart rate in anesthetized dogs. In kind it is in vivo, dog (mongrel). The note with it: femoral vein. Here is the method:
4. Effect on blood flow in the vertebral artery, blood pressure and heart rate in anesthetized dogs
Mongrel dogs of either sex, weighing 6.8-9.4 kg, were used. The animals were anesthetized with an intravenous injection, at first, of 30 mg/kg of sodium thiopental and thereafter, of a combination of urethane 400 mg/kg and α-chloralose 60 mg/kg. Under artificial ventilation (20 ml/kg/stroke, 20 strokes/min), blood flow in the vertebral artery and blood pressure were measured with the aid of an extracorporeal electromagnetic flow probe placed on the artery and a pressure transducer, respectively. Vertebral vascular resistance was recorded with an electronic divider and heart rate was measured with a heart rate counter triggered by blood pressure pulses. All of these parameters were recorded on a polygraph continuously. When these parameters became stable, test compounds were injected into the femoral vein.

The test system of assay [3] is rabbit platelet rich plasma. Description: Effect on in vitro platelet aggregation. In kind it is cell-based, rabbit (male Japanese white). The following applies: for IC50: Oryctolagus cuniculus, Platelet. Here is the method:
5. Effect on in vitro platelet aggregation Arterial blood was drawn from the ear artery of male Japanese white rabbits. Platelet rich plasma (PRP) was prepared by centrifugation of 9 ml of blood mixed with 1 ml of 3.8% sodium citrate as anticoagulant. Platelet aggregation was measured optically according to Born's method. ADP (10 μM), collagen (37.5 μg/ml), platelet activating factor (PAF, 0.11 nM) and calcium ionophore A 23187 (1 μg/ml) were used as platelet aggregators. Test compounds were added 1 minute prior to the addition of aggregating agents.

The test system of assay [4] is scopolamine amnesia mouse. Description: Anti-amnesia effect (scopolamine-induced retrograde amnesia), step-through passive avoidance. The note with it: ip, 24 h, significant prolongation of step-through latency, intraperitoneal, scopolamine 0.5 mg/kg s.c., read-out: Minimum effective amount. In kind it is in vivo, mouse (male ddY). Here is the method: 6a. Anti-amnesia effect (i.e., capability of preventing scopolamine-inducedretrograde amnesia)
Five-week old male ddY weighing 25-30 g were used in groups each consisting of 10 animals. Memory retention deficit induced by scopolamine was evaluated by two-compartment step-through passive avoidance task. […] The floor of the dark compartment was provided with a current-conducting grid.
The experimental method was as follows. A scopolamine amnesia mouse that had been given subcutaneous injection of 0.5 mg/kg of an aqueous solution of scopolamine borate 20 minutes before was placed in the light compartment and when its forefeet touched the grid floor of the dark compartment, a current of 0.6 mA was applied to give a foot shock to the mouse (acquired conation). Immediately thereafter, a selected test compound or a control (physiological saline solution) was administered intraperitoneally. Twenty-four hours later, the mouse was replaced in the light compartment and the step-through latency, or the time required for the mouse to move to the dark compartment, was measured for a period of up to 300 seconds (test conation). The minimum effective amount of the test compound that provided a significant prolongation of the step-through latency over the control was determined.

Assay [5] has as its system ECS-induced amnesia in mice. Briefly: Effect on electroconvulsive shock (ECS)-induced amnesia in mice, step-through passive avoidance. The following applies: 6.25 and 12.5 mg/kg, intraperitoneal, 30 minutes before retention test. In kind it is in vivo, mouse (male ddY). The procedure:
(§1) 6b. Effects on electroconvulsive shock (ECS)- and cycloheximide-induced amnesia in mice
(§2) Male, ddY strain mice, weighing 25 to 35 g, were used. Memory retention deficit induced by ECS and cycloheximide was evaluated by two-compartment step-through passive avoidance task using a light-dark apparatus. Passive avoidance training test began by placing the mouse into the light compartment. When the mouse moved completely into the dark compartment, a shock of 0.6 mA was applied from the grid floor. Amnesia was induced in the following two ways. In the first one, a single ECS (current 50 mA, frequency 50 Hz, pulse width 1 msec, shock duration 1 msec) was applied via a pair of electrodes attached to the head immediately after receiving the foot shock, and the mouse was returned to its home cage. Test compounds were administered intraperitoneally 30 minutes before a retention test. In the second one, cycloheximide (40 mg/kg) was administered subcutaneously 30 minutes before the training and the compounds in question were administered intraperitoneally immediately after the training. A retention test was given 24 hours later. The test procedures proceeded in a manner similar to the training one, and time to entry into the dark compartment was measured for 300 seconds.

Assay [6] has as its system cycloheximide-induced amnesia in mice. Description: Effect on cycloheximide-induced amnesia in mice, step-through passive avoidance. It counts as in vivo, mouse (male ddY). The following applies: 6.25 and 50 mg/kg, intraperitoneal, immediately after training; cycloheximide 40 mg/kg s.c. The procedure:
as §1, §2

The next assay has as its system Male ICR mice. Briefly: Anti-depression effect (forced swimming, revolutions of water wheel). In kind it is in vivo, mouse (male ICR). The following applies: 50 mg/kg, intraperitoneal. From the text: Male ICR mice weighing 25-30 g were used in groups each consisting of 6 or 7 animals. […] First, the mouse was subjected to force swimming for two days on a 15-minutes-a-day basis; starting on the third day, the mouse that had received intraperitoneal injection of a test compound one hour before was subjected to forced swimming for 3 days on a 15-minutes-a-day basis.

Assay [7] concerns rabbit platelet rich plasma. Briefly: Effect on in vitro platelet aggregation. In kind it is cell-based, rabbit (male Japanese white). The note with it: Oryctolagus cuniculus, aggregator AA, read-out: Anti-platelet aggregation IC50, AA.

≈ marks a conversion by molar mass, not a printed value. Entries after “also recorded” stand apart in the source; their conditions may differ. Where two headings read alike, the source gives them in different places.

As a reminder, the IC50 is the midpoint of a concentration-inhibition curve. `CN(C)CCCON=C1c2ccccc2OC2(c3ccccc3)CC12` (stereo not drawn) [Example 2, 3,4-Benzo-5-(3-dimethylaminopropyl)oxyimino-1-phenyl-2-oxabicyclo[4.1.0]heptane]: the “prolongation of gasping time” value is listed as “significant prolongation of the gasping time” with Male ddY mice [1] (12.5 mg/kg) and “significantly prolonging the gasping time” with Male ddY mice [1] (25 mg/kg). Moreover, the “prolongation of survival time” value in the assay with Male ddY mice [2] (6.25 mg/kg or smaller) is given as “significant prolongation of the survival time”; with Male ddY mice [2] (12.5 mg/kg), “significantly prolonging the survival time”. Moreover, the blood pressure result in the assay on vertebral artery (3.0 mg/kg) is on record as “small decrease”; in the assay with vertebral artery (0.3 and 1.0 mg/kg), “almost no change”. Moreover, the heart rate entry in the assay on vertebral artery (3.0 mg/kg) is given as “increase”; in the assay with vertebral artery (0.3 and 1.0 mg/kg), “almost no change”. Besides, the vertebral vascular resistance result is listed as “further decrease” in the assay with vertebral artery (3.0 mg/kg); “dose-dependent decreases” in the assay with vertebral artery (0.3 and 1.0 mg/kg). The IC50 was 34.5 µg/mL (≈ 103 µM) in [3] (aggregator ADP (10 μM), read-out: Anti-platelet aggregation IC50, ADP); 20 µg/mL (≈ 59.4 µM) in assay [3] (aggregator PAF (0.11 nM), read-out: Anti-platelet aggregation IC50, PAF); 69 µg/mL (≈ 205 µM) in assay [3] (aggregator calcium ionophore A 23187 (1 μg/ml), read-out: Anti-platelet aggregation IC50, A 23187); 4.1 µg/mL (≈ 12.2 µM) in [3] (aggregator collagen (37.5 μg/ml), read-out: Anti-platelet aggregation IC50, Collagen); 54 µg/mL (≈ 161 µM) in assay [7]. Further, the “platelet aggregation” value in assay [3] (all the aggregators used, listed as Compound No. 2) is recorded as “decreases in platelet aggregation induced by all the aggregators used; also recorded: nonspecific inhibitory actions on in vitro platelet aggregation”. The minimal effective dose in assay [4] is 3.2 mg/kg. In assay [5], the “prevention of ECS-induced shortening of step-through latency” value is recorded as “significantly prevented the ECS-induced shortening of step-through latency”. Moreover, in assay [6], the “prolongation of step-through latency shortened by cycloheximide” value is listed as “significantly prolonged the step-through latency”. The “anti-depression effect” value in the assay on Male ICR mice is listed as “anti-depression effect”. In the assay on Male ICR mice (one hour before forced swimming), the “rotation of the water wheel relative to control group” value is recorded as 1.8 times.
